Test results from patent US11034672B1, “Tyrosine kinase inhibitor compositions, methods of making and methods of use” (Black Diamond Therapeutics, Inc., priority 2018, dated 2021).

How the values were obtained:
Assay type in all cases: cell-based
[1] = target: T1, EGFR WT (Homo sapiens, UniProt P00533); assay: Activity for inhibiting EGFR (Table A), EGFR WT; conditions: read-out: EGFR WT, potency code (IC50)
[2] = target: T1, EGFR WT; assay: BaF3 cell proliferation assay, EGFR WT (Table A); conditions: potency code, 3 days, CellTiterGlo, read-out: EGFR WT (Activity for Inhibiting EGFR)
Summary of the method: (§1)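 Proliferation read-out is used in BaF3 cells engineered to express each EGFR or HER2 form; EC50 is derived from it. Transduced populations are selected with Blasticidin, washed in PBS and cultured without IL-3.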

[3] = target: T2, EGFR SVD (Homo sapiens, UniProt P00533, DUP768-770); assay: Activity for inhibiting EGFR (Table A), EGFR SVD; conditions: read-out: EGFR SVD, potency code (IC50)
T2 construct: expressed in transfected cells; host or cells: BaF3 (murine pro-B), retroviral pMXs-IRES-Blasticidin

[4] = target: T3, HER2 YVMA (Homo sapiens, UniProt P04626, INS775YVMA); assay: Activity for inhibiting HER2 (Table B), HER2 YVMA; conditions: read-out: HER2 YVMA, potency code (IC50)
T3 construct: expressed in transfected cells; host or cells: BaF3 (murine pro-B)
Method: (§2) EC50 values were determined with the same application.

[5] = target: T4, EGFR V3 (Homo sapiens, UniProt P00533, DELINS30-297G); assay: Activity for inhibiting EGFR (Table A), EGFR V3 (EGFR-Viii); conditions: read-out: EGFR V3, potency code (IC50)
T4 construct: expressed in transfected cells; host or cells: BaF3 (murine pro-B), retroviral pMXs-IRES-Blasticidin

[6] = target: T5, EGFR NPH (Homo sapiens, UniProt P00533, DUP771-773); assay: Activity for inhibiting EGFR (Table A), EGFR NPH; conditions: read-out: EGFR NPH, potency code (IC50)
T5 construct: expressed in transfected cells; host or cells: BaF3 (murine pro-B), retroviral pMXs-IRES-Blasticidin

[7] = target: T3, HER2 YVMA; assay: BaF3 cell proliferation assay, HER2 YVMA (Table B); conditions: potency code, 3 days, CellTiterGlo, read-out: HER2 YVMA (Activity for Inhibiting HER2)
[8] = target: T2, EGFR SVD; assay: BaF3 cell proliferation assay, EGFR SVD (Table A); conditions: potency code, 3 days, CellTiterGlo, read-out: EGFR SVD (Activity for Inhibiting EGFR)
Method: (§3) Retroviral Production: EGFR mutants were subcloned into pMXs-IRES-Blasticidin (RTV-016, Cell Biolabs, San Diego, Calif.). Retroviral expression vector retrovirus was produced by transient transfection of HEK 293T cells with the retroviral EGFR mutant expression vector pMXs-IRES-Blasticidin (RTV-016, Cell Biolabs), pCMV-Gag-Pol vector and pCMV-VSV-G-Envelope vector. Briefly, HEK 293T/17 cells were plated in 100 mm collagen coated plate (354450, Corning Life Sciences, Tewksbury, Mass.) (4×10^5 per plate) and incubated overnight. The next day, retroviral plasmids (3 μg of EGFR mutant, 1.0 μg of pCMV-Gag-Pol and 0.5 μg pCMV-VSV-G) were mixed in 500 μl of Optimem (31985, Life Technologies). The mixture was incubated at room temperature for 5 min and then added to Optimem containing transfection reagent Lipofectamine (11668, Invitrogen) and incubated for 20 minutes. Mixture was then added dropwise to HEK 293T cells. The next day the medium was replaced with fresh culture medium and retrovirus was harvested @ 24 and 48 hrs.
(§4) Generation of EGFR mutant stable cell lines: BaF3 cells (1.5E5 cells) were infected with 1 ml of viral supernatant supplemented with 8 μg/ml polybrene by centrifuging for 30 min at 1000 rpm. Cells were placed in a 37° C. incubator overnight. Cells were then spun for 5 minutes to pellet the cells. Supernatant was removed and cells re-infected a fresh 1 ml of viral supernatant supplemented with 8 μg/ml polybrene by centrifuging for 30 min at 1000 rpm. Cells were placed in 37° C. incubator overnight. […] After 48 hours cells were selected for retroviral infection in 10 μg/ml Blasticidin for one week. Blasticidin resistant populations were washed twice in phosphate buffered saline before plating in media lacking IL-3 to select for IL-3 independent growth.
as §2

[9] = target: T6, HER2 S310F (Homo sapiens, UniProt P04626, S310F); assay: Activity for inhibiting HER2 (Table B), HER2 S310F; conditions: read-out: HER2 S310F, potency code (IC50)
T6 construct: expressed in transfected cells; host or cells: BaF3 (murine pro-B)
Method: as §2

[10] = target: T6, HER2 S310F; assay: BaF3 cell proliferation assay, HER2 S310F (Table B); conditions: potency code, 3 days, CellTiterGlo, read-out: HER2 S310F (Activity for Inhibiting HER2)
[11] = target: T5, EGFR NPH; assay: BaF3 cell proliferation assay, EGFR NPH (Table A); conditions: potency code, 3 days, CellTiterGlo, read-out: EGFR NPH (Activity for Inhibiting EGFR)
Method: as §3, §4, §2

[12] = target: T4, EGFR V3; assay: BaF3 cell proliferation assay, EGFR V3 (Table A); conditions: potency code, 3 days, CellTiterGlo, read-out: EGFR V3 (Activity for Inhibiting EGFR)
Summary of the method: as §1

[13] = target: T7, HER2 WT (Homo sapiens, UniProt P04626); assay: BaF3 cell proliferation assay, HER2 WT (Table B); conditions: potency code, 3 days, CellTiterGlo, read-out: HER2 WT (Activity for Inhibiting HER2)
[14] = target: T7, HER2 WT; assay: Activity for inhibiting HER2 (Table B), HER2 WT
[15] = Table B, read-out: HER2 WT, potency code (IC50)
[16] = text lists of compounds, read-out: IC50 value for inhibiting wild-type HER2

T3 sequence (P04626 with tags, fused parts or gaps INS775YVMA): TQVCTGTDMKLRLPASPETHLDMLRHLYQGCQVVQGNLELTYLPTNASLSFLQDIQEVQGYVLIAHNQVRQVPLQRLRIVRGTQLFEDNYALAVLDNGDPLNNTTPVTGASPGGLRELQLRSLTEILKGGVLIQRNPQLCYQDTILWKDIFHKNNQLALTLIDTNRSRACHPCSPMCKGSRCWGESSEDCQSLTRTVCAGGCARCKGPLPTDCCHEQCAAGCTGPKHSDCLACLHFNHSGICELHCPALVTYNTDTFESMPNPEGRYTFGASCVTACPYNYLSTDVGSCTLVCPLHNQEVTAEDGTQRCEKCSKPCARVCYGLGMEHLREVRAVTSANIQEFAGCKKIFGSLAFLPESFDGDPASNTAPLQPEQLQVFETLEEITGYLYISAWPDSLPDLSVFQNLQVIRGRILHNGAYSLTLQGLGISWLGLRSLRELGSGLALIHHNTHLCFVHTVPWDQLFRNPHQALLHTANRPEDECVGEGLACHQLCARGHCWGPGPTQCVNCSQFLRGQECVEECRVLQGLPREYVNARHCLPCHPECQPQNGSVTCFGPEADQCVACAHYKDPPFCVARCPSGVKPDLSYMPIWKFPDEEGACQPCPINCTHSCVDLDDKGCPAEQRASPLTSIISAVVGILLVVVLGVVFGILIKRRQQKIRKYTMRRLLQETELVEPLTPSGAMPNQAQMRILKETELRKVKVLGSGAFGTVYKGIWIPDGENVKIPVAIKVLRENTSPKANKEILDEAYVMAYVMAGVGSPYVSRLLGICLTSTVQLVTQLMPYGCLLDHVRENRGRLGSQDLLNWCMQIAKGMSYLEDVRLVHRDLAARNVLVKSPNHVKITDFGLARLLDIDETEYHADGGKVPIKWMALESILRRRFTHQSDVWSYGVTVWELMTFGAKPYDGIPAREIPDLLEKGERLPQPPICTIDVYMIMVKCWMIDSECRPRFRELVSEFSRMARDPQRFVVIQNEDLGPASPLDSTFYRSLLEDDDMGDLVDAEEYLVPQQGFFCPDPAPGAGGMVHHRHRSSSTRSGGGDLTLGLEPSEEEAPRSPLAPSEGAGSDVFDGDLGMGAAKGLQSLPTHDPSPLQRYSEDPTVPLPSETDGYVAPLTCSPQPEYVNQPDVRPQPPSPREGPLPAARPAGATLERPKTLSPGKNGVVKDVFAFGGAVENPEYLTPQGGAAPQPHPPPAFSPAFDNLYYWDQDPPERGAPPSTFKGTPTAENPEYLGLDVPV
T4 sequence (P00533 with tags, fused parts or gaps DELINS30-297G): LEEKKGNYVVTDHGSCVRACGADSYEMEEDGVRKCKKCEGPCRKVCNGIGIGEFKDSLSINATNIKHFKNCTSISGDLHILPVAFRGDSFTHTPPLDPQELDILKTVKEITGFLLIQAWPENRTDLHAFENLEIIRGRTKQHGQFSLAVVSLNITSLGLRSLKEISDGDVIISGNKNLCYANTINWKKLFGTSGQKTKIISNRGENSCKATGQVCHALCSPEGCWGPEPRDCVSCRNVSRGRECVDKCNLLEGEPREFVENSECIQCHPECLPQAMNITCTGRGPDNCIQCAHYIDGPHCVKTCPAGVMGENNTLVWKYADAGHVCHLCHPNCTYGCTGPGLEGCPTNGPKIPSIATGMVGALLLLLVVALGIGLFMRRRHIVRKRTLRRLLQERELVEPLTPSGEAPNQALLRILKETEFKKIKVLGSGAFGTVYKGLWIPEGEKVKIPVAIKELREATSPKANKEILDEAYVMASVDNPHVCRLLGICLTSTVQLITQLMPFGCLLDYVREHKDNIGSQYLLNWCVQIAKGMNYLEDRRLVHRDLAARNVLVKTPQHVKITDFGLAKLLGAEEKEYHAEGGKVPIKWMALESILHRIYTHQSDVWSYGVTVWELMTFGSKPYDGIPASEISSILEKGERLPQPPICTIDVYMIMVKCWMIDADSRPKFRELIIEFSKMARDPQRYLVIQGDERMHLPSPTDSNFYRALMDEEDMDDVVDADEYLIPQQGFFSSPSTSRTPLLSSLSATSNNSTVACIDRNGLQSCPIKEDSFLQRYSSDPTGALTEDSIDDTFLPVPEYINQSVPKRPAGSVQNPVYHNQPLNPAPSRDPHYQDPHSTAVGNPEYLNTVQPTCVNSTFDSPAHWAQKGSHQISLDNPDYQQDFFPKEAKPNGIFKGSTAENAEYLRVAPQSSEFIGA
T6 sequence (P04626 23-1255 S310F): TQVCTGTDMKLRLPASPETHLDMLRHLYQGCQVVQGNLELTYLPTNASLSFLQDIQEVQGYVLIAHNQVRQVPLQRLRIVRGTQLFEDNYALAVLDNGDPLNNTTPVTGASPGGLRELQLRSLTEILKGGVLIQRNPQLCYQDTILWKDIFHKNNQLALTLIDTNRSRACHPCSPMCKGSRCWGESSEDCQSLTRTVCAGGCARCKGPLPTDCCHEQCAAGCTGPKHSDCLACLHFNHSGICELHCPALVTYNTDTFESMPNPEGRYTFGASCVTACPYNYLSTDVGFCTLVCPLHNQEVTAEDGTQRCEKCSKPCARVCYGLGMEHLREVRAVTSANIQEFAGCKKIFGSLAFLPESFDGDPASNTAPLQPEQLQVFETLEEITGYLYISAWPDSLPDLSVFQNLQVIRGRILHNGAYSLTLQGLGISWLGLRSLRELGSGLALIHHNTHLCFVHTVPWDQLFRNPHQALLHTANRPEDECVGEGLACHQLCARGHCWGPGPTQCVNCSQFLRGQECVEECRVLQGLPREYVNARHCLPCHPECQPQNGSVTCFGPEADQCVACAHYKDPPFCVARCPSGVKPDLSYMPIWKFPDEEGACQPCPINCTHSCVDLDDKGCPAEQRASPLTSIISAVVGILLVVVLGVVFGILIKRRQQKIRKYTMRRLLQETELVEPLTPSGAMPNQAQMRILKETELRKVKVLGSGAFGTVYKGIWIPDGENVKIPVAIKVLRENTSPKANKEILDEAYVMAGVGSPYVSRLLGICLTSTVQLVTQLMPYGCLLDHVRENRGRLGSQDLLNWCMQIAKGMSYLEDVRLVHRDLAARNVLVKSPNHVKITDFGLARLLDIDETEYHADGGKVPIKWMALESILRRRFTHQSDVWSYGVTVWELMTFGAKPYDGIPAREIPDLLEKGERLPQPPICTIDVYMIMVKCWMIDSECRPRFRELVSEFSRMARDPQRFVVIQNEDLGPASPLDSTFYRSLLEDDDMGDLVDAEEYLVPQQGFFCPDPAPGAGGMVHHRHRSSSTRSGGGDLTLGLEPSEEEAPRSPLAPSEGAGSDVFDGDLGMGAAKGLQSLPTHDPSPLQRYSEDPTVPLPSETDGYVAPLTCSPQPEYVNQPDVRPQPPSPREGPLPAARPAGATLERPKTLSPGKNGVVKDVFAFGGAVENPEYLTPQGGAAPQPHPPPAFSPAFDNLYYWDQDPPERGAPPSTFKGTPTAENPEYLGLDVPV
T2 sequence (P00533 with tags, fused parts or gaps DUP768-770): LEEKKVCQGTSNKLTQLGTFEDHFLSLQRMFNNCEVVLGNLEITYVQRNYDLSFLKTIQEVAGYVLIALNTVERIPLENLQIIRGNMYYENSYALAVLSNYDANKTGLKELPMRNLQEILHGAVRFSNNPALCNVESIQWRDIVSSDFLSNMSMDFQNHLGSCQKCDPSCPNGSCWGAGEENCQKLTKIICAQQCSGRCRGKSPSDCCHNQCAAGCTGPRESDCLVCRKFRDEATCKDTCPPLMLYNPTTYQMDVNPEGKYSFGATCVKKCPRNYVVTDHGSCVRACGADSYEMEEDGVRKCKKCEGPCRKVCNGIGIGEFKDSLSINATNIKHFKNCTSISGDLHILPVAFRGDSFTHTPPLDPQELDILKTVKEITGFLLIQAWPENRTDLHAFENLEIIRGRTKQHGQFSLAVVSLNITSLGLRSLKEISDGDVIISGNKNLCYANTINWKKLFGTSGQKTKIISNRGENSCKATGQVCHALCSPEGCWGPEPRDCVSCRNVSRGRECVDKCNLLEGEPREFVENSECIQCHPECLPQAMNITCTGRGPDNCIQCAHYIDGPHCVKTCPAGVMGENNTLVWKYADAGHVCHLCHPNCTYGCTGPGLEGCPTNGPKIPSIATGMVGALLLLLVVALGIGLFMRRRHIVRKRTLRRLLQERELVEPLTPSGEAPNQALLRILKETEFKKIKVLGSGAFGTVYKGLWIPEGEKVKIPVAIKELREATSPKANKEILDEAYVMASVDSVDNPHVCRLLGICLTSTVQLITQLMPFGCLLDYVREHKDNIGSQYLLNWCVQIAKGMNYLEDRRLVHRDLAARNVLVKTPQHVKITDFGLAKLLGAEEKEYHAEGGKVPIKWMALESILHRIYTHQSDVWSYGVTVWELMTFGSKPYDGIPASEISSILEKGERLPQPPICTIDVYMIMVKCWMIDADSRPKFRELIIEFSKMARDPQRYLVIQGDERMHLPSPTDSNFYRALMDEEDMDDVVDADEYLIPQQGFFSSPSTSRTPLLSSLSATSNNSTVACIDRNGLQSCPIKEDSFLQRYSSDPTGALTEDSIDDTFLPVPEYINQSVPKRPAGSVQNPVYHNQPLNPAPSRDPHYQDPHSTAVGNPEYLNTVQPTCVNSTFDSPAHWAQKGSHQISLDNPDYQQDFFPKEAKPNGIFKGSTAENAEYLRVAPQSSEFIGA

Structure (SMILES) | IC50 [1] [nM] | IC50 [2] [nM] | IC50 [3] [nM] | IC50 [4] [nM] | IC50 [5] [nM] | IC50 [6] [nM] | IC50 [7] [nM] | IC50 [8] [nM] | IC50 [9] [nM] | IC50 [10] [nM] | IC50 [11] [nM] | IC50 [12] [nM] | IC50 [13] [nM] | IC50 [14, 15] [nM] | IC50 [14, 16] [nM]
C=CC(=O)Nc1cc2c(Nc3ccc(OCc4ccccn4)c(Cl)c3)ncnc2cc1OCCCN1CCN(C)CC1 [compound 69] | 300 to 500 | 300 to 500 | 20 to 30 | 20 to 30 | 10 to 20 | 20 to 30 | 20 to 30 | 20 to 30 | 10 to 20 | 10 to 20 | 20 to 30 | 10 to 20 |  |  | 
C=CC(=O)Nc1cc2c(Nc3ccc(OCc4ccccn4)c(Cl)c3)ncnc2cc1OCCN1CC2(COC2)C1 [compound 38] | 300 to 500 | 300 to 500 |  | 50 to 100 | 30 to 50 |  | 50 to 100 |  | 20 to 30 | 20 to 30 |  | 30 to 50 | 5 to 10 | 5 to 10 | ≤ 10
CC#CC(=O)Nc1cc2c(Nc3ccc(OCc4ccccn4)c(Cl)c3)ncnc2cc1OCCN1CCN(C)CC1 [compound 70] | 50 to 100 | 50 to 100 | 30 to 50 | 5 to 10 | 10 to 20 | 50 to 100 | 5 to 10 | 30 to 50 | 5 to 10 | 5 to 10 | 50 to 100 | 10 to 20 |  |  | 
C=CC(=O)Nc1cc2c(Nc3ccc(OCc4ccccn4)c(Cl)c3)ncnc2cc1C#CC(C)(C)N1CCCC1 [compound 84, N-(4-((3-chloro-4-(pyridin-2-ylmethoxy)phenyl)amino)-7-(3-methyl-3-(pyrrolidin-1-yl)but-1-yn-1-yl)quinazolin-6-yl)acrylamide] | 500 to 1000 | 500 to 1000 | 50 to 100 | 30 to 50 | 20 to 30 | 50 to 100 | 30 to 50 | 50 to 100 | 5 to 10 | 5 to 10 | 50 to 100 | 20 to 30 |  |  | 
C=CC(=O)Nc1cc2c(Nc3ccc(OCc4ccccn4)c(Cl)c3)ncnc2cc1OCCN(C)CC [compound 32] | 300 to 500 | 300 to 500 |  | 50 to 100 | 20 to 30 |  | 50 to 100 |  | 10 to 20 | 10 to 20 |  | 20 to 30 | < 5 | < 5 | ≤ 5
CC#CC(=O)Nc1cc2c(Nc3ccc(OCc4ccccn4)c(Cl)c3)ncnc2cc1OC1CCN(C)C1 (stereo not shown) [compound 67] | 100 to 200 | 100 to 200 |  | 50 to 100 | 20 to 30 |  | 50 to 100 |  | 10 to 20 | 10 to 20 |  | 20 to 30 | 5 to 10 | 5 to 10 | ≤ 10
C=CC(=O)Nc1cc2c(Nc3ccc(OCc4ccccn4)c(Cl)c3)ncnc2cc1OCCN1CCC(OC)C1 (stereo not shown) [compound 29] | 300 to 500 | 300 to 500 |  | 50 to 100 | 20 to 30 |  | 50 to 100 |  | 10 to 20 | 10 to 20 |  | 20 to 30 | < 5 | < 5 | ≤ 5
C=CC(=O)Nc1cc2c(Nc3ccc(OCc4ccccn4)c(Cl)c3)ncnc2cc1C#CC(C)(C)N1CCN(C)CC1 [compound 65] | 500 to 1000 | 500 to 1000 |  | 50 to 100 | 20 to 30 |  | 50 to 100 |  | 10 to 20 | 10 to 20 |  | 20 to 30 | 10 to 20 | 10 to 20 | ≤ 20
C=CC(=O)Nc1cc2c(Nc3ccc(OCc4ccccn4)c(Cl)c3)ncnc2cc1C#C[C@H]1CCN(C)C1 [compound 85, N-(4-((3-chloro-4-(pyridin-2-ylmethoxy)phenyl)amino)-7-((1-methylpyrrolidin-3-yl)ethynyl)quinazolin-6-yl)acrylamide] | 200 to 300 | 200 to 300 | 20 to 30 | 30 to 50 | 20 to 30 | 20 to 30 | 30 to 50 | 20 to 30 | 5 to 10 | 5 to 10 | 20 to 30 | 20 to 30 |  |  | 
C=CC(=O)Nc1cc2c(Nc3ccc(OCc4ccccn4)c(Cl)c3)ncnc2cc1OC1CCN(C)C1 (stereo not shown) [compound 16] | 200 to 300 | 200 to 300 |  | 30 to 50 | 20 to 30 |  | 30 to 50 |  | 20 to 30 | 20 to 30 |  | 20 to 30 | < 5 | < 5 | ≤ 5
C=CC(=O)Nc1cc2c(Nc3ccc(OCc4ccccn4)c(Cl)c3)ncnc2cc1OCCN1CC(F)C1 [compound 34] | 500 to 1000 | 500 to 1000 |  | 50 to 100 | 30 to 50 |  | 50 to 100 |  | 10 to 20 | 10 to 20 |  | 30 to 50 | 10 to 20 | 10 to 20 | ≤ 20
C=CC(=O)Nc1cc2c(Nc3ccc(OCc4ccccn4)c(Cl)c3)ncnc2cc1OCCn1ccnc1 [compound 10] | > 1000 | > 1000 |  | 200 to 300 | 50 to 100 |  | 200 to 300 |  | 20 to 30 | 20 to 30 |  | 50 to 100 | 10 to 20 | 10 to 20 | ≤ 20
C=CC(=O)Nc1cc2c(Nc3ccc(OCc4ccccn4)c(Cl)c3)ncnc2cc1OCCC1(N(C)C)CC1 [compound 102, N-(4-((3-chloro-4-(pyridin-2-ylmethoxy)phenyl)amino)-7-(2-(1-(dimethylamino)cyclopropyl)ethoxy)quinazolin-6-yl)acrylamide] | 500 to 1000 | 500 to 1000 | 30 to 50 | 50 to 100 | 30 to 50 | 50 to 100 | 50 to 100 | 30 to 50 | 20 to 30 | 20 to 30 | 50 to 100 | 30 to 50 |  |  | 
C=CC(=O)Nc1cc2c(Nc3ccc(OCc4ccccn4)c(Cl)c3)ncnc2cc1O[C@H]1CCN(C)C1 [compound 18] | 300 to 500 | 300 to 500 |  | 50 to 100 | 20 to 30 |  | 50 to 100 |  | 20 to 30 | 20 to 30 |  | 20 to 30 | 5 to 10 | 5 to 10 | ≤ 10
C=CC(=O)Nc1cc2c(Nc3ccc(OCc4ccccn4)c(Cl)c3)c(C#N)cnc2cc1OCCN1CCOCC1 [compound 11] | 300 to 500 | 300 to 500 | 300 to 500 |  | 50 to 100 | 300 to 500 |  | 300 to 500 | 50 to 100 | 50 to 100 | 300 to 500 | 50 to 100 | 30 to 50 | 30 to 50 | ≤ 50
